The source of these data is paper PMC11212260, “Next-generation neuropeptide Y receptor small-molecule agonists inhibit mosquito-biting behavior” (Parasites & Vectors, 2024).

Where “and” joins values, the source holds several entries; their conditions need not be identical. Equal entries are not always repeated.

Experiment [1] deals with Ae. aegypti NPYLR7 (Aedes aegypti, UniProt U5N1H5). Set-up: method as in PMID 30735632. To be noted: previous work; read-out: EC50 in activating NPYLR7 in vitro; cited from earlier work.
Chain of Ae. aegypti NPYLR7 (U5N1H5 entry or part of it): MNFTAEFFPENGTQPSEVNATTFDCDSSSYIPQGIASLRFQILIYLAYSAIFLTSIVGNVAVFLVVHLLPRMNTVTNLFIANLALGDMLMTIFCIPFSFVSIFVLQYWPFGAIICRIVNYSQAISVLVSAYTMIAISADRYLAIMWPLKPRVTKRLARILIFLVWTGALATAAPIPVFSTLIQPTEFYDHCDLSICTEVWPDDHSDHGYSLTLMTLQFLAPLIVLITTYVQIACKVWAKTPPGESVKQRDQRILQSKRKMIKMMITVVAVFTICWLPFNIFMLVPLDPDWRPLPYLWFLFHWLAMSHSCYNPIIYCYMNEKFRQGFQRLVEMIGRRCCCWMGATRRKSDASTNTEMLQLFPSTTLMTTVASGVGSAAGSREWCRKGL
Experiment [2] deals with Aedes aegypti (Orlando strain) females. Set-up: method as in PMID 30735632. The conditions noted are these: previous work; cited from earlier work.
Experiment [3] has the same test system. Description: Host-seeking screening assay (miniport olfactometer). The experiment is classed as in vivo. To be noted: for Attraction (relative to saline): per-compound value of Fig. 3C; for effect on host-seeking (in words): fed at a dose of 1 μM. In short, it runs like this:
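Fasted Orlando-strain females fed saline meals (400 mM NaHCO3) with 1 mM ATP and test compound at 1 μM final via warmed membrane feeders; lethality counted 24 h post-meal. At 48 h, attraction to human-scented stocking plus 5% CO2 scored over 5 min, normalized to matched saline-fed controls.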

The test system is the same in experiment [4]. Description: Glytube feeding: females feeding to repletion and weight per female (meal palatability). The conditions noted are these: Supplemental Figure 1 Panel A; compounds of Fig 3; individual replicate values. It counts as in vivo. As for the experimental part: Groups of 60–150 females were placed in bucket cages with a diameter of 21.6 cm and height of 16.5 cm (VWR) and fasted with access to water for 24 h prior to feeding. Meals were delivered to females via Glytube membrane feeders as described previously. Meals consisted of 1.5 ml sheep blood (HemoStat Laboratories), saline (400 mM NaHCO3 + dih2O), or saline and test compound. Lyophilized compounds were stored at room temperature until use. High-concentration stocks (30 mM in 100% dimethyl sulfoxide [DMSO]) (Sigma-Aldrich) were stored at −20 °C and diluted in saline immediately prior to feeding. Once prepared, meals and glycerol heating elements were warmed in a 42 °C water bath for 15 min to provide warmth to attract mosquitos to feed. ATP (1 mM final concentration) and test compounds (1 μM final concentration) were added prior to placing the meal on top of the mesh on the cage containing female mosquitos. Females were allowed 15–20 min to feed to repletion. Abdominal engorgement was scored by eye and confirmed by weighing females to ensure full feeding (Data S1). […] Females were returned to their original cage with a diH2O wick for 48 h prior to behavioral testing. The lethality of each compound was measured by counting the number of dead females in each cage 24 h post-meal.
Supplementary file 13071_2024_6347_MOESM1_ESM.png: Supplementary Material 1: Figure 1. […] (A) Percent of females feeding to repletion and (B) weight per female after feeding on the indicated meal used for testing in Miniport olfactometer experiments in Figure 3B. (C) Percent of females feeding to repletion and (D) weight per female after feeding on the indicated meal used for testing in live host assays in Figure 4. Data are shown as mean with standard deviation. n = 2–22 replicate cages, 60–150 females/cage. Females were weighed in groups of five to ensure reliable readings. Kruskal–Wallis with Dunn’s multiple comparisons to saline-fed group, ns P > 0.01, * P < 0.01, *** P < 0.0001. (PNG 321 KB)

The mark [5] stands for this setting: fed 1 μM in saline, tested 48 h post-meal.

Consider `COc1ccc2c(C)nc(NC(=N)N)nc2c1` [TDI-012631, reference compound], for which the EC50 in experiment [1] was 19.6 µM. Besides, in experiment [2], the “fed dose at which behaviorally active” value was over 30 µM. Further, in experiment [3] (fed 1 μM in saline, tested 48 h post-meal, individual replicates, listed as TDI-02631), the “Host-seeking relative to saline (test compound % host-seeking/average matched saline % host-seeking)” value is 1.06 and 1. Also, the “Attraction (relative to saline)” value in experiment [3] (setting [5]) is 0.99. Besides, in experiment [3], the “effect on host-seeking (in words)” value was “not active”.

With `CNc1nc(NC(=N)N)nc2cc(OCc3ccccc3)c(OC)cc12` [TDI-014184], the “Attraction (relative to saline)” value in experiment [3] (setting [5]) amounted to 0.6. In addition, the “% feeding (females feeding to repletion)” value in experiment [4] was determined as 76.92%.

With `Cc1nc(NC(=N)N)nc2cc(N3CCc4ccccc4C3)ccc12` [TDI-014186], in experiment [3] (setting [5]), the “Attraction (relative to saline)” value was determined as 0.685. Moreover, the “effect on host-seeking (in words)” value in experiment [3] was “reduced host-seeking behavior”. In addition, the “% feeding (females feeding to repletion)” value in experiment [4] was found to be 56.22%.
